Reference: PubChem BioAssay AID1259411 (Chemical Carcinogenesis Research Information System (CCRIS), 2018)
The source made the active and inactive calls. How the calls were made is not given here.

Tested on: rodent carcinogenicity bioassays, tumor incidence
Assay: CCRIS carcinogenicity studies
In short: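 Archive of carcinogenicity, mutagenicity, tumor promotion and tumor inhibition results drawn from journals, NCI reports and other sources, expert-reviewed; covers 1985-2011 and is no longer updated.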

c1ccc2c(c1)cc1ccc3cccc4ccc2c1c34
carcinogen call (Species: FISH, Strain/Sex: MT. SHASTA RAINBOW TROUT/MALE, FEMALE, Route: TRANSCHORIONIC INJECTION, Dose: 0, 0.09, 0.9, 9 UG IN DMSO ADMINISTERED IN OVO APPROXIMATELY 2 DAYS PRIOR TO HATCHING (STUDY DURATION: 1 YR), Dose: 0, 0.09, 0.9, 9 UG IN DMSO ADMINISTERED IN OVO APPROXIMATELY 2 DAYS PRIOR TO HATCHING (STUDY DURATION: 1 YR)): inactive; negative
carcinogen call (Species: FISH, Strain/Sex: MT. SHASTA RAINBOW TROUT/MALE, FEMALE, Route: TRANSCHORIONIC INJECTION, Dose: 0, 4.5, 9, 18 UG IN DMSO ADMINISTERED IN OVO APPROXIMATELY 2 DAYS PRIOR TO HATCHING, Dose: 0, 4.5, 9, 18 UG IN DMSO ADMINISTERED IN OVO APPROXIMATELY 2 DAYS PRIOR TO HATCHING, Tumor Site: Type of Lesion: LIVER: TUMOR): active; positive
carcinogen call (Species: FISH, Strain/Sex: RAINBOW TROUT/MALE, FEMALE, Route: INTRAPERITONEAL, Dose: 0, 1 MG IN 0.4 ML PROPYLENE GLYCOL 1/MO FOR 12 MO BEGINNING AT 10 MO OF AGE (STUDY DURATION: 18 MO), Tumor Site: Type of Lesion: LIVER: CARCINOMA): active; positive
carcinogen call (Species: FISH, Strain/Sex: RAINBOW TROUT/MALE, FEMALE, Route: ORAL, Dose: 0, 1000 PPM IN DIET FOR 18 MO (STUDY DURATION: 18 MO), Tumor Site: Type of Lesion: LIVER: CARCINOMA): active; positive
carcinogen call (Species: FISH, Strain/Sex: SHEEPSHEAD MINNOW/MALE, FEMALE, Route: IMMERSION, Dose: 0, 2, 30, 200 PPB APPROXIMATE CONCENTRATIONS ADMINISTERED 1/WK FOR 6 OR 24 HR FOR 1 OR 2 WK (STUDY DURATION: 39 WK), Dose: 0, 2, 30): inactive; negative
carcinogen call (Species: HAMSTER, Route: GAVAGE, Tumor Site: Type of Lesion: FORESTOMACH: PAPILLOMA, CARCINOMA): active; positive
carcinogen call (Species: HAMSTER, Route: INTRATRACHEAL, Tumor Site: Type of Lesion: LUNG): active; positive
carcinogen call (Species: HAMSTER, Route: ORAL, Dose: 500 PPM IN DIET 4 D/WK FOR UP TO 14 MO, Tumor Site: Type of Lesion: ESOPHAGUS, FORESTOMACH, INTESTINES, Tumor Site: Type of Lesion: ESOPHAGUS, FORESTOMACH, INTESTINES): active; positive
carcinogen call (Species: HAMSTER, Route: SUBCUTANEOUS, Dose: 2.5 MG, 3 MO, Tumor Site: Type of Lesion: INJECTION SITE: SARCOMA): active; positive
carcinogen call (Species: HAMSTER, Route: SUBCUTANEOUS, Tumor Site: Type of Lesion: INJECTION SITE: SARCOMA): active; positive
carcinogen call (Species: HAMSTER, Strain/Sex: MALE,FEMALE, Route: INTRATRACHEAL, Dose: 0.25-2 MG, 1/WK FOR 30 WK, Tumor Site: Type of Lesion: RESPIRATORY TRACT): active; positive
carcinogen call (Species: HAMSTER, Strain/Sex: SYRIAN/FEMALE, Route: INTRATRACHEAL, Dose: 0, 1 MG IN 0.1 ML PHOSPHATE BUFFER 15/WK FOR 4 MO (STUDY DURATION: 443 D), Tumor Site: Type of Lesion: TRACHEA: PAPILLOMA OR CARCINOMA): active; positive
carcinogen call (Species: HAMSTER, Strain/Sex: SYRIAN/MALE,FEMALE, Route: SUBCUTANEOUS, Dose: 0.0005-80 MG, 10 DOSES, Tumor Site: Type of Lesion: INJECTION SITE: SARCOMA): active; positive
carcinogen call (Species: HAMSTER, Strain/Sex: SYRIAN/MALE, Route: GAVAGE, Dose: 2-5 MG 2/WK FOR 1-11 MO, Tumor Site: Type of Lesion: STOMACH: CARCINOMA, PAPILLOMA): active; positive
carcinogen call (Species: MONKEY, Route: INTRATRACHEAL, Dose: 3-15 MG, 1/WK, Tumor Site: Type of Lesion: LUNG: SQUAMOUS CARCINOMA): active; positive
carcinogen call (Species: MONKEY, Strain/Sex: TUPAIA GLIS/MALE,FEMALE, Route: SUBCUTANEOUS, Dose: 10 MG, SINGLE DOSE, Tumor Site: Type of Lesion: INJECTION SITE: SARCOMA): active; positive
carcinogen call (Species: MOUSE, Route: SUBCUTANEOUS, Tumor Site: Type of Lesion: INJECTION SITE: SARCOMA): active; positive
carcinogen call (Species: MOUSE, Strain/Sex: A/J/MALE, Route: INTRAPERITONEAL, Dose: 0, 10, 100 MG/KG BW IN TRICAPRYLIN ONCE AT 4-5 WK OF AGE (STUDY DURATION: 7-8 MO), Dose: 0, 10, 100 MG/KG BW IN TRICAPRYLIN ONCE AT 4-5 WK OF AGE (STUDY DURATION: 7-8 MO), Tumor Site: Type of Lesion: LUNG: TUMOR): active; positive
carcinogen call (Species: MOUSE, Strain/Sex: B6C3F1/FEMALE, Route: ORAL, Dose: 0, 5, 25, 100 PPM IN DIET FOR 2 YR (STUDY DURATION: 2 YR), Dose: 0, 5, 25, 100 PPM IN DIET FOR 2 YR (STUDY DURATION: 2 YR), Tumor Site: Type of Lesion: FORESTOMACH: PAPILLOMA OR CARCINOMA, ESOPHAGUS: PAPILLOMA OR CARCINOMA, TONGUE: PAPILLOMA OR CARCINOMA, Tumor Site: Type of Lesion: FORESTOMACH: PAPILLOMA OR CARCINOMA, ESOPHAGUS: PAPILLOMA OR CARCINOMA, TONGUE: PAPILLOMA OR CARCINOMA): active; positive
carcinogen call (Species: MOUSE, Strain/Sex: B6C3F1/MALE, Route: INTRAPERITONEAL, Dose: 0, 0.005, 0.015 UMOL/G ONCE AT 12 DAYS OF AGE (STUDY DURATION: 10 MO), Dose: 0, 0.005, 0.015 UMOL/G ONCE AT 12 DAYS OF AGE (STUDY DURATION: 10 MO), Tumor Site: Type of Lesion: LIVER: HEPATOMA): active; positive
carcinogen call (Species: MOUSE, Strain/Sex: B6C3F1/MALE, Route: INTRAPERITONEAL, Dose: 0, 125, 250, 375 UG ADMINISTERED TO 15-DAY OLD MICE ONCE (STUDY DURATION: 52 WK), Dose: 0, 125, 250, 375 UG ADMINISTERED TO 15-DAY OLD MICE ONCE (STUDY DURATION: 52 WK), Tumor Site: Type of Lesion: LIVER: TUMOR): active; positive
